Assay results taken from patent US12459951B2, “Compounds that interact with RAS superfamily proteins for treatment of cancers, inflammatory diseases, rasopathies, and fibrotic disease” (SHY Therapeutics, LLC, priority 2022, dated 2025).

How the values were obtained:
Akt phosphorylation = test: Akt Phosphorylation Assay (western blot), Panc-1; assay type: cell-based, human; conditions: at 10 μM, * = activation
Outline: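 Phospho-Akt (Ser473) was measured by western blot in lysates of KRas G12D Panc-1 cells exposed to test compound for 6 h at 37 °C, either at 10 μM final with 0.3% DMSO or as serial dilutions for IC50. One format used overnight 0.5% FBS starvation followed by a 15 min pulse of 1.5 ng/ml EGF. The other used cells in 10% FBS with no stimulation.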

KRas G12D mutant = test: Ras GTP Binding Domain Inhibition Assay (Ras Superfamily Assay); conditions: at 20 μM; for KRas G12D mutant + SOS: % inh.: with SOS; for KRas G12D mutant: % inh.: without SOS
Outline: (§1)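 His-tagged GTPases immobilised on nickel-coated plates, pre-incubated with compound (20 μM single point, or serial dilution for IC50) 3 h at room temperature, with or without 10-30 μg/mL Sos (residues 556-1049) in the final hour. Bound Cy3- or Cy5-GTP (100 nM, 45 min) measured by fluorescence after washing.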

KRas wild type = test: as above; conditions: at 20 μM; for KRas wild type + SOS: % inh.: with SOS; for KRas wild type: % inh.: without SOS
Outline: as §1

Rac-1 = molecular target: T1, Rac-1 (Homo sapiens, UniProt P63000); test: as above; conditions: read-out: Rac-1: % inh.
T1 construct: made in house
Outline: as §1

| KRas G12D mutant + SOS: % inh. (KRas G12D mutant) | KRas G12D mutant: % inh. (KRas G12D mutant) | KRas wild type + SOS: % inh. (KRas wild type) | KRas wild type: % inh. (KRas wild type) | inhibition at 20 µM (Rac-1) [%] | SMILES | % inh of Akt phosphorylation in Panc-1 (Akt phosphorylation) |
| --- | --- | --- | --- | --- | --- | --- |
| D (D = 76-100% inhibition) | D (D = 76-100% inhibition) | D (D = 76-100% inhibition) | D (D = 76-100% inhibition) | 76 to 100 | COc1ccnc(Nc2nc(-c3nccn3C)nn3cc(-c4cccnc4)c(-c4ccccc4)c23)c1 [Compound 196, N-(4-Methoxypyridin-2-yl)-2-(1-methyl-1H-imidazol-2-yl)-5-phenyl-6-(pyridin-3-yl)pyrrolo[2,1-f][1,2,4]triazin-4-amine] | D* (85-100% activation) |
| B (B = 26-49% inhibition) | B (B = 26-49% inhibition) | B (B = 26-49% inhibition) | A (A = 1-25% inhibition) | 26 to 49 | CO[C@H]1C[C@@H](Nc2nc(-c3nccn3C)nn3cc(-c4ccncc4)c(-c4ccccc4)c23)C1 [Compound 198, N-((1s,3s)-3-Methoxycyclobutyl)-2-(1-methyl-1H-imidazol-2-yl)-5-phenyl-6-(pyridin-4-yl)pyrrolo[2,1-f][1,2,4]triazin-4-amine] | C (50-84% inhibition) |
| B (B = 26-49% inhibition) | B (B = 26-49% inhibition) | B (B = 26-49% inhibition) | A (A = 1-25% inhibition) | 26 to 49 | CO[C@H]1C[C@H](Nc2nc(-c3nccn3C)nn3cc(-c4ccncc4)c(-c4ccccc4)c23)C1 [Compound 199, N-((1r,3r)-3-Methoxycyclobutyl)-2-(1-methyl-1H-imidazol-2-yl)-5-phenyl-6-(pyridin-4-yl)pyrrolo[2,1-f][1,2,4]triazin-4-amine] | A (1-25% inhibition) |
| C (C = 50-75% inhibition) | C (C = 50-75% inhibition) | C (C = 50-75% inhibition) | B (B = 26-49% inhibition) | 26 to 49 | COCCNc1nc(-c2nccn2C)nn2cc(-c3ccncc3)c(-c3ccccc3)c12 [Compound 202, N-(2-Methoxyethyl)-2-(1-methyl-1H-imidazol-2-yl)-5-phenyl-6-(pyridin-4-yl)pyrrolo[2,1-f][1,2,4]triazin-4-amine] | B (26-49% inhibition) |
| 0 (0 = 0% inhibition) | 0 (0 = 0% inhibition) | 0 (0 = 0% inhibition) | 0 (0 = 0% inhibition) | 1 to 25 | CO[C@H]1C[C@H](Nc2nc(-c3nccn3C)nn3cc(-c4ccccc4)c(-c4ccccc4)c23)C1 [Compound 203, N-((1r,3r)-3-Methoxycyclobutyl)-2-(1-methyl-1H-imidazol-2-yl)-5,6-diphenylpyrrolo[2,1-f][1,2,4]triazin-4-amine] | D (85-100% inhibition) |
| A (A = 1-25% inhibition) | A (A = 1-25% inhibition) | A (A = 1-25% inhibition) | A (A = 1-25% inhibition) | 1 to 25 | CO[C@H]1C[C@H](Nc2nc(-c3nccn3C)nn3cc(-c4cccc(CN)c4)c(-c4ccccc4)c23)C1 [Compound 204, 6-(3-(aminomethyl)phenyl)-N-((1r,3r)-3-methoxycyclobutyl)-2-(1-methyl-1H-imidazol-2-yl)-5-phenylpyrrolo[2,1-f][1,2,4]triazin-4-amine] | C* (46-84% activation) |
| A (A = 1-25% inhibition) | A (A = 1-25% inhibition) | A (A = 1-25% inhibition) | A (A = 1-25% inhibition) | 1 to 25 | CO[C@H]1C[C@H](Nc2nc(-c3nccn3C)nn3cc(-c4cccc(OCCN)c4)c(-c4ccccc4)c23)C1 [Compound 205, 6-(3-(2-Aminoethoxy)phenyl)-N-((1r,3r)-3-methoxycyclobutyl)-2-(1-methyl-1H-imidazol-2-yl)-5-phenylpyrrolo[2,1-f][1,2,4]triazin-4-amine] | C* (46-84% activation) |
| A (A = 1-25% inhibition) | A (A = 1-25% inhibition) | A (A = 1-25% inhibition) | A (A = 1-25% inhibition) | 1 to 25 | CO[C@H]1C[C@H](Nc2nc(-c3nccn3C)nn3cc(-c4ccc(CN)cc4)c(-c4ccccc4)c23)C1.Cl [Compound 206, 6-(4-(Aminomethyl)phenyl)-N-((1r,3r)-3-methoxycyclobutyl)-2-(1-methyl-1H-imidazol-2-yl)-5-phenylpyrrolo[2,1-f][1,2,4]triazin-4-amine hydrochloride salt] | C (50-84% inhibition) |
| A (A = 1-25% inhibition) | B (B = 26-49% inhibition) | B (B = 26-49% inhibition) | B (B = 26-49% inhibition) | 1 to 25 | CO[C@H]1C[C@H](Nc2nc(-c3nccn3C)nn3cc(-c4ccc(CCN)cc4)c(-c4ccccc4)c23)C1.Cl [Compound 207, 6-(4-(2-Aminoethyl)phenyl)-N-((1r,3r)-3-methoxycyclobutyl)-2-(1-methyl-1H-imidazol-2-yl)-5-phenylpyrrolo[2,1-f][1,2,4]triazin-4-amine hydrochloride salt] | C* (46-84% activation) |
| C (C = 50-75% inhibition) | B (B = 26-49% inhibition) | C (C = 50-75% inhibition) | B (B = 26-49% inhibition) | 26 to 49 | CO[C@H]1C[C@H](Nc2nc(-c3nccn3C)nn3cc(-c4ccc(OCCN)cc4)c(-c4ccccc4)c23)C1.Cl [Compound 208, 6-(4-(2-Aminoethoxy)phenyl)-N-((1r,3r)-3-methoxycyclobutyl)-2-(1-methyl-1H-imidazol-2-yl)-5-phenylpyrrolo[2,1-f][1,2,4]triazin-4-amine hydrochloride salt] | D* (85-100% activation) |
| A (A = 1-25% inhibition) | A (A = 1-25% inhibition) | 0 (0 = 0% inhibition) | A (A = 1-25% inhibition) | 26 to 49 | COc1cccc(-c2cn3nc(-c4nccn4C)nc(N[C@H]4C[C@H](OC)C4)c3c2-c2ccccc2)c1C [Compound 209, 6-(3-methoxy-2-methylphenyl)-N-((1r,3r)-3-methoxycyclobutyl)-2-(1-methyl-1H-imidazol-2-yl)-5-phenylpyrrolo[2,1-f][1,2,4]triazin-4-amine] | D (85-100% inhibition) |
